Patent publication US9499537B2, “Antiviral pyrrolopyridine derivatives and method for preparing the same” (KOREA RESEARCH INSTITUTE OF CHEMICAL TECHNOLOGY, priority 2011, dated 2016)
Where two headings read alike, the source gives them in different places.

Experiments:
MT-4 cells = test: Cytotoxicity test in MT-4 cells (MTT method); type: cell-based

Compound	CC60 (μM) ** : concentration at 50% cell damage with respect to MT-4 cells (MT-4 cells; human) [µM]	melting point [°C]	CC60 (μM) ** : concentration at 50% cell damage with respect to MT-4 cells (MT-4 cells) [µM]
Cc1nc2c(c(C)c(C)n2Cc2cc[nH]n2)c(-c2ccc(Cl)cc2)c1[C@H](OC(C)(C)C)C(=O)O [Example 45, (S)-2-(1-((1H-pyrazol-3-yl)methyl)-4-(4-chlorophenyl)-2,3,6-trimethyl-1H-pyrrolo[2,3-b]pyridin-5-yl)-2-(tert-butoxy)acetic acid]	19.33	140	–
Cc1nc2c(c(C)c(C)n2Cc2cn[nH]c2)c(-c2ccc(Cl)cc2)c1[C@H](OC(C)(C)C)C(=O)O [Example 46, (S)-2-(1-((1H-Pyrazol-4-yl)methyl)-4-(4-chlorophenyl)-2,3,6-trimethyl-1H-pyrrolo[2,3-b]pyridin-5-yl)-2-(tert-butoxy)acetic acid]	20.89	> 230	–
Cc1nc2c(c(C)c(C)n2CC2CC2)c(-c2ccc(Cl)cc2)c1[C@H](OC(C)(C)C)C(=O)O [Example 28, (S)-2-Tert-butoxy-2-(4-(4-chlorophenyl)-1-(cyclopropylmethyl)-2,3,6-trimethyl-1H-pyrrolo[2,3-b]pyridin-5-yl)acetic acid]	20.4	–	–
Cc1nc2c(c(C)c(C)n2CCC#N)c(-c2ccc(Cl)cc2)c1C(OC(C)(C)C)C(=O)O (centres unmarked) [Example 23, 2-Tert-butoxy-2-(4-(4-chlorophenyl)-1-(2-cyanoethyl)-2,3,6-trimethyl-1H-pyrrolo[2,3-b]pyridin-5-yl)acetic acid]	25.49	–	–
Cc1nc2c(c(C)c(C)n2C)c(-c2cc(F)c3c(c2C)CCCO3)c1[C@H](OC(C)(C)C)C(=O)O [Example 75, (S)-2-(tert-butoxy)-2-((S)-4-(8-fluoro-5-methylchroman-6-yl)-1,2,3,6-tetramethyl-1H-pyrrolo[2,3-b]pyridin-5-yl)acetic acid]	–	–	37.22
Cc1nc2c(c(C)c(C)n2CC(C)C)c(-c2ccc(Cl)cc2)c1C(OC(C)(C)C)C(=O)O (centres unmarked) [Example 17, 2-Tert-butoxy-2-(4-(4-chlorophenyl)-1-isobutyl-2,3,6-trimethyl-1H-pyrrolo[2,3-b]pyridin-5-yl)acetic acid]	17.57	–	–
Cc1nc2c(c(C)c(C)n2CC2(O)CC2)c(-c2ccc(Cl)cc2)c1[C@H](OC(C)(C)C)C(=O)O [Example 52]	34.33	–	–
CCn1c(C)c(C)c2c(-c3ccc(C)cc3)c(C(OC(C)(C)C)C(=O)O)c(C)nc21 (centres unmarked) [Example 38, 2-Tert-butoxy-2-(1-ethyl-2,3,6-trimethyl-4-(para-tolyl)-1H-pyrrolo[2,3-b]pyridin-5-yl)acetic acid]	40.34	–	–
Cc1nc2c(c(C)c(C)n2CCF)c(-c2ccc(Cl)cc2)c1[C@H](OC(C)(C)C)C(=O)O [Example 54, (S)-2-(Tert-butoxy)-2-(4-(4-chlorophenyl)-1-(2-fluoroethyl)-2,3,6-trimethyl-1H-pyrrolo[2,3-b]pyridin-5-yl)acetic acid]	18.82	–	–
Cc1nc2c(c(C)c(C)n2Cc2ccncc2)c(-c2ccc(Cl)cc2)c1C(OC(C)(C)C)C(=O)O (centres unmarked) [Example 10, 2-Tert-butoxy-2-(4-(4-chlorophenyl)-2,3,6-trimethyl-1-(pyridin-4-ylmethyl)-1H-pyrrolo[2,3-b]pyridin-5-yl)acetic acid]	>203	–	–
Cc1nc2c(c(C)c(C)n2CCC#N)c(-c2ccc(Cl)cc2)c1[C@H](OC(C)(C)C)C(=O)O [Example 30, (S)-2-Tert-butoxy-2-(4-(4-chlorophenyl)-1-(2-cyanoethyl)-2,3,6-trimethyl-1H-pyrrolo[2,3-b]pyridin-5-yl)acetic acid]	30.86	–	–
Cc1nc2c(c(C)c(C)n2CCN2CCCC2)c(-c2ccc(Cl)cc2)c1[C@H](OC(C)(C)C)C(=O)O [Example 71]	73.54	–	–
